Consider four molecules from paper PMC11188089, “Structural basis for antibiotic transport and inhibition in PepT2, the mammalian proton-coupled peptide transporter” (Research Square, 2024).

Assay [1] addresses T1, PepT2 (Rattus norvegicus, UniProt Q63424).
T1 sequence (Q63424 1-729): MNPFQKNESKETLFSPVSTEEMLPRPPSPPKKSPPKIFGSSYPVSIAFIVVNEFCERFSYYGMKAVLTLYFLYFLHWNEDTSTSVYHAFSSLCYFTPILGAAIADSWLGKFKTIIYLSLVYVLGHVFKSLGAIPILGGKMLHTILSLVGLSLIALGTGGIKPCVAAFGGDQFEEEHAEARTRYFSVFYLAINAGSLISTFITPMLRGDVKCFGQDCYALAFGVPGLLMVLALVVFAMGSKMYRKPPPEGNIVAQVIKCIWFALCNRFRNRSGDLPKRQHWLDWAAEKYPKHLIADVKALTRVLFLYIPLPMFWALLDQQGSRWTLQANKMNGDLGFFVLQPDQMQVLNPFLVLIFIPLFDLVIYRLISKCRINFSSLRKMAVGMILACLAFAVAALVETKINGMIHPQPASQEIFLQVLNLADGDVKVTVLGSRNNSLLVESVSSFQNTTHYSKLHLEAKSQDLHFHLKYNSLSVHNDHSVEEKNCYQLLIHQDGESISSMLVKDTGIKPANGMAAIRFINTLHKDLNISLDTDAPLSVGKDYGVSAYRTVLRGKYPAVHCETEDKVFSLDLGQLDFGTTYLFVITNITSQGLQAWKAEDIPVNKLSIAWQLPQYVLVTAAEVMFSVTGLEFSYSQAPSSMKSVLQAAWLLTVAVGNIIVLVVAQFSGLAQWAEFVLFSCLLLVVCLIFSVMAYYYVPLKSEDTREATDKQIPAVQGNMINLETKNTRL
Kind of assay: inhibition of ^3H di-alanine uptake in PepT2 proteoliposomes; counterflow; SSM electrophysiology. The class given is biochemical. Also noted: gene Slc15a2; purified rat PepT2 reconstituted into liposomes.

The target in assay [2] is Rattus norvegicus PepT2 (SLC15A2), proton-coupled peptide transporter (Rattus norvegicus) (UniProt Q63424).
In assay [3] the target is T1, PepT2. Further details: gene Slc15a2.
Assay [4] has as its target T2, Rattus norvegicus PepT2 (SLC15A2), proton-coupled peptide transporter (Rattus norvegicus, UniProt Q63424).
T2 construct: PepT2 (SLC15A2) from Rattus norvegicus; The extracellular domain (ECD) was in the protein but was not built in the deposited models; For the IC50 assay the same purified protein was reconstituted into POPE:POPG liposomes; The Addgene ids 167988 and 167989 are assigned to PepT2 and the nanobody by the order in the sentence; also called rat PepT2; RnPepT2; not shown: GFP, C-terminal, cleaved; His …
Kind of assay: cryo-EM structure; PepT2 after SEC (5-6 mg/ml, DDM:CHS) mixed with 1 mM antibiotic (cefadroxil, amoxicillin or cloxacillin) for one hour, then 1.2 molar excess of nanobody D8, on ice for at least 30 minutes. The note with it: both partners purified.

Read-outs that look alike come from different tables or passages of the source. Where a SMILES comes first, the peptide text is derived from it.

One may read the IC50 as the midpoint of a concentration-inhibition curve. Regarding `C[C@H](N)C(=O)N[C@@H](C)C(=O)O` [di-alanine] (H-Ala-Ala-OH), the IC50 in assay [1] turned out to be 32 µM.
As for di-alanine peptide, the IC50 for inhibition of the uptake of radioactive (3H) di-alanine into rat PepT2 proteoliposomes in assay [2] was determined as 32 µM.
With `Nc1nc(/C(=C/CC(=O)O)C(=O)N[C@@H]2C(=O)N3C(C(=O)O)=CCS[C@H]23)cs1` [ceftibuten], the IC50 in assay [3] stood at 1000 µM.

B1: nanobody D8 (inhibitory nanobody against rat PepT2) (VHH)
VHH: QVQLVESGGGLVQPGGSLRLLCVASGRPFNDYDMGWFRQAPGKEREFVASISWSGRVTDYSDSMKGRCTVSRDNAKGTMFLQMSNLVPRDTAVYYCAAARRRWTFKATNTEEFYETWGQGTQVTVSS
notes: the nanobody was resolved in the structures solved here (PDB 9BIR, 9BIS, 9BIT, 9BIU); expression plasmid in Addgene; also called the nanobody
As for B1, the binding result in assay [4] is “binds”.
